Results published in PubChem BioAssay AID270 (DTP/NCI, 2004).
Where “and” joins values, the source holds several entries; their conditions need not be identical. Equal values may be shown once. Records with an inconclusive call do not appear.

Tested on: BDF1 mice, s.c. Lewis lung carcinoma, T/C %
Assay: NCI In Vivo Anticancer Drug Screen. Data for tumor model Lewis Lung Carcinoma (subcutaneous) in B6D2F1 (BDF1) mice
How it was run: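 Antitumor effect in vivo is scored from survival or tumor burden, reported as treated relative to vehicle controls.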

[1] = endpoint: median survival time, dose: 5.0 mg/kg/injection, schedule: Q01DX009 (ip), vehicle: Klucel (hydroxypropylcellulose) (HPC), higher = longer survival
[2] = endpoint: median survival time, dose: 5.0 mg/kg/injection, schedule: Q01DX009 (ip), vehicle: saline, higher = longer survival
[3] = endpoint: mean tumor weight, dose: 25.0 mg/kg/injection, schedule: Q01DX011 (ip), vehicle: saline, higher = larger tumour
[4] = endpoint: mean tumor weight, dose: 12.5 mg/kg/injection, schedule: Q01DX011 (ip), vehicle: other, higher = larger tumour
[5] = endpoint: mean tumor weight, dose: 25.0 mg/kg/injection, schedule: Q01DX011 (ip), vehicle: other, higher = larger tumour
[6] = endpoint: mean tumor weight, dose: 50.0 mg/kg/injection, schedule: Q01DX011 (ip), vehicle: other, higher = larger tumour

O=c1[nH]cc(F)c(=O)[nH]1
T/C (endpoint: mean tumor weight, dose: 5.0 mg/kg/injection, schedule: Q01DX011 (ip), vehicle: saline, higher = larger tumour): 54 % of control
T/C (endpoint: mean tumor weight, dose: 10.0 mg/kg/injection, schedule: Q01DX011 (ip), vehicle: saline, higher = larger tumour): 68 % of control
T/C (endpoint: mean tumor weight, dose: 13.5 mg/kg/injection, schedule: Q01DX011 (ip), vehicle: water, higher = larger tumour): 51 % of control
T/C (endpoint: mean tumor weight, dose: 20.0 mg/kg/injection, schedule: Q01DX011 (ip), vehicle: saline, higher = larger tumour): 35 % of control
T/C (endpoint: mean tumor weight, dose: 27.0 mg/kg/injection, schedule: Q01DX011 (ip), vehicle: water, higher = larger tumour): 6 % of control
T/C [1]: 86 % of control
T/C (endpoint: median survival time, dose: 5.0 mg/kg/injection, schedule: Q01DX009 (ip), vehicle: saline with Tween-80, higher = longer survival): 97 % of control
T/C [2]: 108 % of control
T/C (endpoint: median survival time, dose: 10.0 mg/kg/injection, schedule: Q01DX009 (ip), vehicle: Klucel (hydroxypropylcellulose) (HPC), higher = longer survival): 97 % of control and 98 % of control
T/C (endpoint: median survival time, dose: 10.0 mg/kg/injection, schedule: Q01DX009 (ip), vehicle: saline with Tween-80, higher = longer survival): 86 % of control
T/C (endpoint: median survival time, dose: 10.0 mg/kg/injection, schedule: Q01DX009 (ip), vehicle: saline, higher = longer survival): 118 % of control
T/C (endpoint: median survival time, dose: 16.2 mg/kg/injection, schedule: Q04DX002 (ip), vehicle: saline, higher = longer survival): 97 % of control and 102 % of control
T/C (endpoint: median survival time, dose: 20.0 mg/kg/injection, schedule: Q01DX009 (ip), vehicle: Klucel (hydroxypropylcellulose) (HPC), higher = longer survival): 111 % of control
T/C (endpoint: median survival time, dose: 20.0 mg/kg/injection, schedule: Q01DX009 (ip), vehicle: saline with Tween-80, higher = longer survival): 97 % of control and 112 % of control
T/C (endpoint: median survival time, dose: 21.6 mg/kg/injection, schedule: Q04DX004 (ip), vehicle: saline, higher = longer survival): 124 % of control
T/C (endpoint: median survival time, dose: 23.3 mg/kg/injection, schedule: Q04DX003 (iv), vehicle: alkali diluted with saline, higher = longer survival): 157 % of control
T/C (endpoint: median survival time, dose: 27.0 mg/kg/injection, schedule: Q04DX002 (ip), vehicle: saline, higher = longer survival): 100 % of control and 102 % of control
T/C (endpoint: median survival time, dose: 36.0 mg/kg/injection, schedule: Q04DX004 (ip), vehicle: saline, higher = longer survival): 115 % of control
T/C (endpoint: median survival time, dose: 40.0 mg/kg/injection, schedule: Q01DX009 (ip), vehicle: Klucel (hydroxypropylcellulose) (HPC), higher = longer survival): 86 % of control
T/C (endpoint: median survival time, dose: 40.4 mg/kg/injection, schedule: Q04DX003 (iv), vehicle: alkali diluted with saline, higher = longer survival): 201 % of control
T/C (endpoint: median survival time, dose: 45.0 mg/kg/injection, schedule: Q04DX002 (ip), vehicle: saline, higher = longer survival): 96 % of control and 97 % of control
T/C (endpoint: median survival time, dose: 70.0 mg/kg/injection, schedule: Q04DX003 (iv), vehicle: alkali diluted with saline, higher = longer survival): 98 % of control
T/C (endpoint: median survival time, dose: 75.0 mg/kg/injection, schedule: Q04DX002 (ip), vehicle: saline, higher = longer survival): 105 % of control
T/C (endpoint: median survival time, dose: 100.0 mg/kg/injection, schedule: Q04DX004 (ip), vehicle: saline, higher = longer survival): 64 % of control
T/C (endpoint: median survival time, dose: 121.0 mg/kg/injection, schedule: Q04DX003 (iv), vehicle: alkali diluted with saline, higher = longer survival): 95 % of control
T/C (endpoint: median survival time, dose: 125.0 mg/kg/injection, schedule: Q04DX002 (ip), vehicle: saline, higher = longer survival): 109 % of control
T/C (endpoint: median tumor weight (est.), dose: 5.0 mg/kg/injection, schedule: Q01DX009 (ip), vehicle: Klucel (hydroxypropylcellulose) (HPC), higher = larger tumour): 102 % of control
T/C (endpoint: median tumor weight (est.), dose: 5.0 mg/kg/injection, schedule: Q01DX009 (ip), vehicle: saline with Tween-80, higher = larger tumour): 97 % of control
T/C (endpoint: median tumor weight (est.), dose: 10.0 mg/kg/injection, schedule: Q01DX009 (ip), vehicle: Klucel (hydroxypropylcellulose) (HPC), higher = larger tumour): 91 % of control
T/C (endpoint: median tumor weight (est.), dose: 10.0 mg/kg/injection, schedule: Q01DX009 (ip), vehicle: saline with Tween-80, higher = larger tumour): 93 % of control
T/C (endpoint: median tumor weight (est.), dose: 20.0 mg/kg/injection, schedule: Q01DX009 (ip), vehicle: Klucel (hydroxypropylcellulose) (HPC), higher = larger tumour): 73 % of control
T/C (endpoint: median tumor weight (est.), dose: 20.0 mg/kg/injection, schedule: Q01DX009 (ip), vehicle: saline with Tween-80, higher = larger tumour): 53 % of control

C=C(C)C12CC(COC(=O)c3ccccc3)C34OC5(OC1C3C1OC1(CO)C(O)C1(O)C(OC(=O)c3ccccc3)C(C)C(C(C)CCCCCCC5O)C14)O2 (stereo not given)
T/C (endpoint: median survival time, dose: 3.8 micrograms/kg/injection, schedule: Q01DX009 (ip), vehicle: saline, higher = longer survival): 107 % of control
T/C (endpoint: median survival time, dose: 7.5 micrograms/kg/injection, schedule: Q01DX009 (ip), vehicle: saline, higher = longer survival): 100 % of control

CC1CCC2(OC1)OC1C(O)C3C4CCC5CC(OC6OC(CO)C(OC7OC(CO)C(O)C(OC8OCC(O)C(O)C8O)C7OC7OC(CO)C(O)C(OC8OC(CO)C(O)C(O)C8O)C7O)C(O)C6O)C(O)CC5(C)C4CCC3(C)C1C2C (stereo not given)
T/C (endpoint: mean tumor weight, dose: 6.2 mg/kg/injection, schedule: Q01DX011 (ip), vehicle: carboxymethylcellulose (CMC), higher = larger tumour): 47 % of control and 58 % of control
T/C (endpoint: mean tumor weight, dose: 12.5 mg/kg/injection, schedule: Q01DX011 (ip), vehicle: carboxymethylcellulose (CMC), higher = larger tumour): 93 % of control and 98 % of control
T/C (endpoint: median survival time, dose: 1.25 mg/kg/injection, schedule: Q01DX009 (ip), vehicle: saline, higher = longer survival): 115 % of control
T/C (endpoint: median survival time, dose: 2.5 mg/kg/injection, schedule: Q01DX009 (ip), vehicle: saline, higher = longer survival): 122 % of control
T/C [2]: 111 % of control

NC(=O)NC1NC(=O)NC1=O (stereo not given)
T/C (endpoint: mean tumor weight, dose: 15.6 mg/kg/injection, schedule: Q01DX011 (ip), vehicle: saline, higher = larger tumour): 67 % of control
T/C (endpoint: mean tumor weight, dose: 31.3 mg/kg/injection, schedule: Q01DX011 (ip), vehicle: saline, higher = larger tumour): 97 % of control
T/C (endpoint: mean tumor weight, dose: 62.5 mg/kg/injection, schedule: Q01DX011 (ip), vehicle: saline, higher = larger tumour): 69 % of control and 76 % of control
T/C (endpoint: mean tumor weight, dose: 125.0 mg/kg/injection, schedule: Q01DX011 (ip), vehicle: saline, higher = larger tumour): 106 % of control
T/C (endpoint: mean tumor weight, dose: 250.0 mg/kg/injection, schedule: Q01DX011 (ip), vehicle: saline, higher = larger tumour): 103 % of control
T/C (endpoint: mean tumor weight, dose: 500.0 mg/kg/injection, schedule: Q01DX011 (ip), vehicle: saline, higher = larger tumour): 101 % of control

CCCCOC(=O)Nc1ccc(OCC)cc1
T/C (endpoint: mean tumor weight, dose: 35.0 mg/kg/injection, schedule: Q01DX011 (ip), vehicle: carboxymethylcellulose (CMC), higher = larger tumour): 63 % of control
T/C (endpoint: mean tumor weight, dose: 70.0 mg/kg/injection, schedule: Q01DX011 (ip), vehicle: carboxymethylcellulose (CMC), higher = larger tumour): 85 % of control
T/C (endpoint: mean tumor weight, dose: 140.0 mg/kg/injection, schedule: Q01DX011 (ip), vehicle: carboxymethylcellulose (CMC), higher = larger tumour): 68 % of control
T/C (endpoint: mean tumor weight, dose: 280.0 mg/kg/injection, schedule: Q01DX011 (ip), vehicle: carboxymethylcellulose (CMC), higher = larger tumour): 69 % of control

C=C(C)C1CC=C(C)CC1 (stereo not given)
T/C (endpoint: mean tumor weight, dose: 100.0 mg/kg/injection, schedule: Q01DX011 (ip), vehicle: carboxymethylcellulose (CMC), higher = larger tumour): 65 % of control
T/C (endpoint: mean tumor weight, dose: 200.0 mg/kg/injection, schedule: Q01DX011 (ip), vehicle: carboxymethylcellulose (CMC), higher = larger tumour): 43 % of control

O=CN(O)CC(=O)O
T/C (endpoint: median survival time, dose: 3000.0 mg/kg/injection, schedule: Q01DX001 (ip), vehicle: saline, higher = longer survival): 115 % of control

COc1ccc(-c2cc(=O)c3c(O)c(OC)c(OC)c(OC)c3o2)cc1
T/C (endpoint: mean tumor weight, dose: 12.5 mg/kg/injection, schedule: Q01DX011 (ip), vehicle: saline, higher = larger tumour): 95 % of control
T/C [3]: 100 % of control
T/C (endpoint: mean tumor weight, dose: 50.0 mg/kg/injection, schedule: Q01DX011 (sc), vehicle: steriod suspending solution, higher = larger tumour): 63 % of control
T/C (endpoint: mean tumor weight, dose: 100.0 mg/kg/injection, schedule: Q01DX011 (sc), vehicle: steriod suspending solution, higher = larger tumour): 90 % of control

S=c1nc[nH]c2c1ncn2C1CCCO1 (stereo not given)
T/C [4]: 36 % of control
T/C [5]: 86 % of control
T/C [6]: 91 % of control
T/C (endpoint: mean tumor weight, dose: 100.0 mg/kg/injection, schedule: Q01DX011 (ip), vehicle: other, higher = larger tumour): 67 % of control

COc1cc(NS(C)(=O)=O)ccc1Nc1c2ccccc2nc2c(C)cccc12
T/C (endpoint: median survival time, dose: 1.25 mg/kg/injection, schedule: Q01DX009 (ip), vehicle: Klucel (hydroxypropylcellulose) (HPC), higher = longer survival): 103 % of control
T/C [1]: 121 % of control

O=S(=O)(c1ccc(NC(=S)N/N=C/c2ccccc2O)cc1)N1CCCCC1
T/C (endpoint: median survival time, dose: 12.5 mg/kg/injection, schedule: Q01DX009 (ip), vehicle: olive oil, sesame oil, peanut oil, higher = longer survival): 98 % of control
T/C (endpoint: median survival time, dose: 25.0 mg/kg/injection, schedule: Q01DX009 (ip), vehicle: olive oil, sesame oil, peanut oil, higher = longer survival): 90 % of control
T/C (endpoint: median survival time, dose: 50.0 mg/kg/injection, schedule: Q01DX009 (ip), vehicle: olive oil, sesame oil, peanut oil, higher = longer survival): 87 % of control
T/C (endpoint: median survival time, dose: 200.0 mg/kg/injection, schedule: Q01DX009 (ip), vehicle: olive oil, sesame oil, peanut oil, higher = longer survival): 91 % of control

CCN(CC)CCNc1ccc([N+](=O)[O-])c2sc3ccccc3c(=O)c12
T/C [4]: 88 % of control
T/C [5]: 102 % of control
T/C [6]: 84 % of control

NC(=O)c1[nH]nc(C2OC(CO)C(O)C2O)c1O (stereo not given)
T/C (endpoint: median survival time, dose: 1.73 mg/kg/injection, schedule: Q04DX003 (iv), vehicle: saline, higher = longer survival): 191 % of control
T/C (endpoint: median survival time, dose: 5.2 mg/kg/injection, schedule: Q04DX003 (iv), vehicle: saline, higher = longer survival): 117 % of control
T/C (endpoint: median survival time, dose: 15.6 mg/kg/injection, schedule: Q04DX003 (iv), vehicle: saline, higher = longer survival): 69 % of control

C1CCNC1
T/C (endpoint: mean tumor weight, dose: 1.56 mg/kg/injection, schedule: Q01DX011 (ip), vehicle: saline, higher = larger tumour): 65 % of control
T/C (endpoint: mean tumor weight, dose: 3.13 mg/kg/injection, schedule: Q01DX011 (ip), vehicle: saline, higher = larger tumour): 87 % of control
T/C (endpoint: mean tumor weight, dose: 6.25 mg/kg/injection, schedule: Q01DX011 (ip), vehicle: saline, higher = larger tumour): 117 % of control
T/C [3]: 73 % of control
T/C (endpoint: mean tumor weight, dose: 50.0 mg/kg/injection, schedule: Q01DX011 (ip), vehicle: saline, higher = larger tumour): 67 % of control

O=C(O)C1CCCCN1 (stereo not given)
T/C (endpoint: mean tumor weight, dose: 133.0 mg/kg/injection, schedule: Q01DX011 (ip), vehicle: other, higher = larger tumour): 110 % of control
T/C (endpoint: mean tumor weight, dose: 300.0 mg/kg/injection, schedule: Q01DX011 (ip), vehicle: other, higher = larger tumour): 123 % of control
T/C (endpoint: mean tumor weight, dose: 450.0 mg/kg/injection, schedule: Q01DX011 (ip), vehicle: other, higher = larger tumour): 116 % of control
